Measurements from ChEMBL document CHEMBL4428109, “Structure-activity relationship studies of non-carboxylic acid peroxisome proliferator-activated receptor α/δ (PPARα/δ) dual agonists” (Bioorg Med Chem, 2016).
The source made the active and inactive calls. The calls are words filed in the database; no cut-off is given here.

Tests used:
[1] = target: T1, Peroxisome proliferator-activated receptor alpha (Homo sapiens) (UniProt Q07869); experiment: Agonist activity at N-terminal Gal4 fused human PPARalpha LBD transfected in HEK293 cells after 24 hrs by luciferase reporter gene assay relative to GW7647; type: cell-based
T1 sequence (whole entry): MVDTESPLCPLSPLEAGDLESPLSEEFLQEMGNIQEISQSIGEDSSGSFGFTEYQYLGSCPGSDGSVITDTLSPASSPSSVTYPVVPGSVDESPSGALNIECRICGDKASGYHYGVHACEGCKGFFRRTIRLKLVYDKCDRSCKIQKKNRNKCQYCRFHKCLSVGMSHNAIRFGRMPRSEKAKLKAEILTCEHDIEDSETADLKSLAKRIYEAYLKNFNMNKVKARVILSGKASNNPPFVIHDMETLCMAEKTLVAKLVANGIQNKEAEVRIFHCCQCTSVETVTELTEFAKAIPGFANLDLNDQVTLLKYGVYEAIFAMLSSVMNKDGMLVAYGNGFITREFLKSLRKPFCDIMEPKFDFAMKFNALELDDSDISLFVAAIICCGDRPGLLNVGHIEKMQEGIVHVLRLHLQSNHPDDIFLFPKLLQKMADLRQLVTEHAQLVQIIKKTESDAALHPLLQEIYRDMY

[2] = target: T2, Oxysterols receptor LXR-alpha (Homo sapiens) (UniProt Q13133); experiment: Agonist activity at LXRalpha (unknown origin) at < 20 uM
T2 sequence (whole entry): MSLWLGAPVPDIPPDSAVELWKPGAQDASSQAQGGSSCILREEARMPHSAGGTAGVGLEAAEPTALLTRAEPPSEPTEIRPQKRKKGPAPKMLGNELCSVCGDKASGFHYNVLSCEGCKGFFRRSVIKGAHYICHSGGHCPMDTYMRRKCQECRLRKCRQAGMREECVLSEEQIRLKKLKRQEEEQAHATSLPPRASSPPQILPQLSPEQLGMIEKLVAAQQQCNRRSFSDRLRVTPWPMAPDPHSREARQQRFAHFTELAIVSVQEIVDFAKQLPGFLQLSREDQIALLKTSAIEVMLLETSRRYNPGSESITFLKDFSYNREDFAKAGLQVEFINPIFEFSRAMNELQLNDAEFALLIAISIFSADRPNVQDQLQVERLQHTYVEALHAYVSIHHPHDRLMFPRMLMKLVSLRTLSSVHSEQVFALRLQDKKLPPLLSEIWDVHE

[3] = target: T3, Retinoic acid receptor RXR-gamma (Homo sapiens) (UniProt P48443); experiment: Agonist activity at RXRgamma (unknown origin) at < 20 uM
T3 sequence (whole entry): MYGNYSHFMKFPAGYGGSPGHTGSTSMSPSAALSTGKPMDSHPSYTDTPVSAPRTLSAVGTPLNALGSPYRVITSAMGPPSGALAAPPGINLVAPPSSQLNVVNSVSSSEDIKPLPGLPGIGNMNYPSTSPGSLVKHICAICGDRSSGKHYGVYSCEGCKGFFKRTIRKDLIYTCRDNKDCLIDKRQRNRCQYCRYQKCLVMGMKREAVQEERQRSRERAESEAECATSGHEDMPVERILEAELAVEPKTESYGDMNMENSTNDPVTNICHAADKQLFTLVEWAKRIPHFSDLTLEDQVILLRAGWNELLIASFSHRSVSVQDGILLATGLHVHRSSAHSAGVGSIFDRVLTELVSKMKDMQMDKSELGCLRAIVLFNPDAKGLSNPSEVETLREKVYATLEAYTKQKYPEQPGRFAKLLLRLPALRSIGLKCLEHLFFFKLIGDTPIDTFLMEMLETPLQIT

[4] = target: T4, Peroxisome proliferator-activated receptor gamma (Homo sapiens) (UniProt P37231); experiment: Agonist activity at N-terminal Gal4 fused human PPARgamma LBD transfected in HEK293 cells at < 10 uM after 24 hrs by luciferase reporter gene assay; type: cell-based
T4 sequence (whole entry): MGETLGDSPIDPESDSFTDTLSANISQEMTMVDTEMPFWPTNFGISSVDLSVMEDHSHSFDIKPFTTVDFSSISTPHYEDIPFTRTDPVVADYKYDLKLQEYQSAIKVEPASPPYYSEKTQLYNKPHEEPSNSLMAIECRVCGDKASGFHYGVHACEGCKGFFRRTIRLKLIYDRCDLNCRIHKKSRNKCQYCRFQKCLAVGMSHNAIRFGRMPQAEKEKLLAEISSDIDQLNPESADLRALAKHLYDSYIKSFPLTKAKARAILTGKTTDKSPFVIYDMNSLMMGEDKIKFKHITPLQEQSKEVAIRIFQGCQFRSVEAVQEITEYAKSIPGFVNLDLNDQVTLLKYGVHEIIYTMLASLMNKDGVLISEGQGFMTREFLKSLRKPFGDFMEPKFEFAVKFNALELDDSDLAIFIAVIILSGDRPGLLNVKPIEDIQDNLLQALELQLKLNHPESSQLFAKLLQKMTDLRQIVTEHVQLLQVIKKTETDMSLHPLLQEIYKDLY

[5] = target: T5, Retinoic acid receptor RXR-alpha (Homo sapiens) (UniProt P19793); experiment: Agonist activity at RXRalpha (unknown origin) at < 20 uM
T5 sequence (whole entry): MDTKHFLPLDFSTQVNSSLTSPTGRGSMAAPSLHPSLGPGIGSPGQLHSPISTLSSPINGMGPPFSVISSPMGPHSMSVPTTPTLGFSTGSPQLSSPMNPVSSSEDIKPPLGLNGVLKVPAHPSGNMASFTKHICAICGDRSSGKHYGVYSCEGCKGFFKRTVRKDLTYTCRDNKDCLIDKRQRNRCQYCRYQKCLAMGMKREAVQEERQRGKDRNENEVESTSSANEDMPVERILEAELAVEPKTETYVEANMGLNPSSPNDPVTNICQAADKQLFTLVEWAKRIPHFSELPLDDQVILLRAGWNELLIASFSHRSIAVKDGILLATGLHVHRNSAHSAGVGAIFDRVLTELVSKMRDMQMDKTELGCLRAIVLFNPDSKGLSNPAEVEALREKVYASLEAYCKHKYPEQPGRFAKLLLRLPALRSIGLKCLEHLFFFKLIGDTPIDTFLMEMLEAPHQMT

[6] = target: T6, Peroxisome proliferator-activated receptor alpha (Homo sapiens, UniProt Q07869); experiment: Agonist activity at N-terminal Gal4 fused human PPARalpha LBD transfected in HEK293 cells after 24 hrs by luciferase reporter gene assay; type: cell-based
T6 sequence (Q07869 whole entry): T1 sequence (whole entry)

Emax [1]: 16 to 35% | Activity [2]: inactive | Activity [3]: inactive | Activity [4]: inactive | Activity [5]: inactive | EC50 [6]: 33 nM
Structure (SMILES): CC(=O)NC(C)c1nc(-c2ccc(Oc3ccc(OCc4ccccc4)cc3)cc2)no1 (stereo unspecified)
